{"source": "patent US10954269B2", "about": "“Anti-inflammatory tripeptides” (Dr. August Wolff Gmbh & Co. KG Arzneimittel, priority 2013, dated 2021)", "key": {"[1]": {"system": "human keratinocyte cell line (HaCaT)", "test": "Cytokine secretion on protein level in activated human keratinocyte cell line HaCaT (13-plex FACS / Luminex, supernatant)", "assay_type": "cell-based", "conditions": "for IL-1 cytokine concentration / IL-2 cytokine concentration / IL-4 cytokine concentration / IL-5 cytokine concentration / IL-6 cytokine concentration / IL-9 cytokine concentration / IL-10 cytokine concentration / IL-12p70 cytokine concentration / IL-13 cytokine concentration / IL-17 cytokine concentration / IL-22 cytokine concentration / TNF-α cytokine concentration / IFN-γ cytokine concentration: substance 10^−9M", "procedure,_shortened": "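Cytokine protein in supernatant is read by multiplex FACS or Luminex. Tripeptide-treated HaCaT cells or blood-derived human T-cells are stimulated beforehand with PMA/Ionomycin or IFN-γ. The most relevant analytes are IL-1, IL-2, IL-6, IL-12p70, IL-17, IFN-γ and TNF-α, sampled 48 h and 72 h after stimulation.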"}, "primary human T cells": {"system": "primary human T cells", "test": "Gene expression of pro-inflammatory cytokines (RT-qPCR) in primary human T cells", "assay_type": "cell-based", "conditions": "RT-qPCR", "source_text": "(§1) Cells were activated with PMA/Ionomycin and treated with PBS, α-MSH, K(D)PT and Examples 3, 8 and 9, respectively, at a concentration of 10^−9 M. Values are normalized to β-actin and are shown relative to the gene expression in PBS-stimulated cells.\n(§2) Primary T-cells were isolated from peripheral blood from healthy volunteers and from secondary lymphatic organs from naïve C57BL/6 mice, respectively. The cells were stimulated with phorbol-12-myristate-13-acetate (PMA)/Ionomycin and interferon-gamma (IFN-γ), respectively, for 48 h to activate the cells. The activated cells release pro-inflammatory cytokines. In parallel a human (HaCaT) keratinocyte cell line was activated with PMA/Ionomycin and IFN-γ, respectively, too. […] At the same time release of anti-inflammatory IL-10 was inhibited. Two days after addition of PMA/Ionomycin and IFN-γ, respectively, the induction of IL-1 secretion was determined in the supernatant for proving that the cells are activated. […] The anti-inflammatory properties of the tripeptides were determined 48 h and 72 h following stimulation. A 13-plex-system based FACS analysis was used for showing the reduced secretion of pro-inflammatory cytokines in the supernatant. Data for IL-1, IL-2, IL-6, IL-12p70 IL-17, IFN-γ and TNF-α are considered to be most relevant. Thus, analysis of the anti-inflammatory properties of the tripeptides is preferably based on the results obtained for these analytes. […] Using this method the gene expression of pro-inflammatory markers like IL-6, IL-17, IFN-γ and TNF-α was determined.\n(§3) In a third experiment murine and human T cells and HaCaT cells were stimulated with PMA/Ionomycin and treated with Examples 14, 15, 16 and 17 at 10^−7 M, 10^−9 M and 10^−11 M. Cytokine concentrations (IFN-γ, IL-17 and IL-10 for T cells and IFN-γ for HaCat) were assessed in the supernatants using the Luminex technology. Expression of genes coding for Il-1β, IL-6 and TNF-α was determined. […] Moreover, concentrations of pro-inflammatory cytokines IFN-γ and IL-17 was reduced in the supernatants whereas the concentration of anti-inflammatory cytokine IL-10 was increased."}, "[2]": {"system": "human keratinocytes (HaCaT)", "test": "Gene expression of pro-inflammatory cytokines (RT-qPCR) in human keratinocytes (HaCaT)", "assay_type": "cell-based", "conditions": "HaCaT keratinocytes; RT-qPCR", "source_text": "as §1, §2, §3"}, "C57BL/6 mice": {"system": "C57BL/6 mice", "test": "Vasculitis model in mice (LPS / TNF-α intradermal)", "assay_type": "in vivo", "conditions": "s.c.", "procedure": "C57BL/6 mice receive an intradermal injection of LPS. On the following day vasculitis is induced by intradermal injection of TNF-α. In addition Evan's blue is injected. 24 hours following the injection of TNF-α mice are scarified. Ear thickness is measured and the degree of vasculitis is assessed by counting petechiae. The content of Evan's blue in the ear tissue is a marker for vascular permeability. Ears are analyzed by histology, FACS and RT-qPCR. […] In histology a reduced inflammatory infiltrate was seen."}, "[3]": {"conditions": "HaCaT stimulated with PMA/Ionomycin"}}, "note": "[ ]: non-standard residue; d: D form. Aib = CC(C)(N)C(=O)O", "data": [{"substance": "H-Phe-Pro-[Aib]-OH [Example 13]", "values": [{"measurement": "IL-1 cytokine concentration", "setting": "[1]; HaCaT stimulated with IFN-γ", "value": 0, "unit": "pg/mL"}, {"measurement": "IL-2 cytokine concentration", "setting": "[1]; HaCaT stimulated with IFN-γ", "value": 0, "unit": "pg/mL"}, {"measurement": "IL-4 cytokine concentration", "setting": "[1]; HaCaT stimulated with IFN-γ", "value": 76.13, "unit": "pg/mL"}, {"measurement": "IL-5 cytokine concentration", "setting": "[1]; HaCaT stimulated with IFN-γ", "value": 0, "unit": "pg/mL"}, {"measurement": "IL-6 cytokine concentration", "setting": "[1]; HaCaT stimulated with IFN-γ", "value": 255.5, "unit": "pg/mL"}, {"measurement": "IL-9 cytokine concentration", "setting": "[1]; HaCaT stimulated with IFN-γ", "value": 0, "unit": "pg/mL"}, {"measurement": "IL-10 cytokine concentration", "setting": "[1]; HaCaT stimulated with IFN-γ", "value": 7.59, "unit": "pg/mL"}, {"measurement": "IL-12p70 cytokine concentration", "setting": "[1]; HaCaT stimulated with IFN-γ", "value": 0, "unit": "pg/mL"}, {"measurement": "IL-13 cytokine concentration", "setting": "[1]; HaCaT stimulated with IFN-γ", "value": 0, "unit": "pg/mL"}, {"measurement": "IL-17 cytokine concentration", "setting": "[1]; HaCaT stimulated with IFN-γ", "value": 34.2, "unit": "pg/mL"}, {"measurement": "IL-22 cytokine concentration", "setting": "[1]; HaCaT stimulated with IFN-γ", "value": 0, "unit": "pg/mL"}, {"measurement": "TNF-α cytokine concentration", "setting": "[1]; HaCaT stimulated with IFN-γ", "value": 0, "unit": "pg/mL"}, {"measurement": "IFN-γ cytokine concentration", "setting": "[1]; HaCaT stimulated with PBS", "value": 0, "unit": "pg/mL"}, {"measurement": "IL-1 cytokine concentration", "setting": "[1]; HaCaT stimulated with PBS", "value": 17.16, "unit": "pg/mL"}, {"measurement": "IL-2 cytokine concentration", "setting": "[1]; HaCaT stimulated with PBS", "value": 14.24, "unit": "pg/mL"}, {"measurement": "IL-4 cytokine concentration", "setting": "[1]; HaCaT stimulated with PBS", "value": 132.37, "unit": "pg/mL"}, {"measurement": "IL-5 cytokine concentration", "setting": "[1]; HaCaT stimulated with PBS", "value": 0, "unit": "pg/mL"}, {"measurement": "IL-6 cytokine concentration", "setting": "[1]; HaCaT stimulated with PBS", "value": 74.11, "unit": "pg/mL"}, {"measurement": "IL-9 cytokine concentration", "setting": "[1]; HaCaT stimulated with PBS", "value": 0, "unit": "pg/mL"}, {"measurement": "IL-10 cytokine concentration", "setting": "[1]; HaCaT stimulated with PBS", "value": 74.67, "unit": "pg/mL"}, {"measurement": "IL-12p70 cytokine concentration", "setting": "[1]; HaCaT stimulated with PBS", "value": 0, "unit": "pg/mL"}, {"measurement": "IL-13 cytokine concentration", "setting": "[1]; HaCaT stimulated with PBS", "value": 1948.04, "unit": "pg/mL"}, {"measurement": "IL-17 cytokine concentration", "setting": "[1]; HaCaT stimulated with PBS", "value": 0, "unit": "pg/mL"}, {"measurement": "IL-22 cytokine concentration", "setting": "[1]; HaCaT stimulated with PBS", "value": 0, "unit": "pg/mL"}, {"measurement": "TNF-α cytokine concentration", "setting": "[1]; HaCaT stimulated with PBS", "value": 6.94, "unit": "pg/mL"}, {"measurement": "IFN-γ cytokine concentration", "setting": "[1]; [3]", "value": 0, "unit": "pg/mL"}, {"measurement": "IL-1 cytokine concentration", "setting": "[1]; [3]", "value": 0, "unit": "pg/mL"}, {"measurement": "IL-2 cytokine concentration", "setting": "[1]; [3]", "value": 0, "unit": "pg/mL"}, {"measurement": "IL-4 cytokine concentration", "setting": "[1]; [3]", "value": 91.99, "unit": "pg/mL"}, {"measurement": "IL-5 cytokine concentration", "setting": "[1]; [3]", "value": 0, "unit": "pg/mL"}, {"measurement": "IL-6 cytokine concentration", "setting": "[1]; [3]", "value": 216.69, "unit": "pg/mL"}, {"measurement": "IL-9 cytokine concentration", "setting": "[1]; [3]", "value": 0, "unit": "pg/mL"}, {"measurement": "IL-10 cytokine concentration", "setting": "[1]; [3]", "value": 41.86, "unit": "pg/mL"}, {"measurement": "IL-12p70 cytokine concentration", "setting": "[1]; [3]", "value": 0, "unit": "pg/mL"}, {"measurement": "IL-13 cytokine concentration", "setting": "[1]; [3]", "value": 0, "unit": "pg/mL"}, {"measurement": "IL-17 cytokine concentration", "setting": "[1]; [3]", "value": 21.33, "unit": "pg/mL"}, {"measurement": "IL-22 cytokine concentration", "setting": "[1]; [3]", "value": 0, "unit": "pg/mL"}, {"measurement": "TNF-α cytokine concentration", "setting": "[1]; [3]", "value": 0, "unit": "pg/mL"}, {"measurement": "secretion / expression of pro-inflammatory cytokines (supernatant)", "setting": "[1]; activated human keratinocytes", "value": "decreased expression"}, {"measurement": "mRNA expression of IL-6, IL-17, IFN-γ and TNF-α", "setting": "primary human T cells", "value": "reduced expression"}, {"measurement": "gene expression of pro-inflammatory cytokines", "setting": "[2]", "value": "reduced expression"}, {"measurement": "ear thickness", "setting": "C57BL/6 mice", "value": "reduction"}, {"measurement": "inflammatory infiltrate in histology", "setting": "C57BL/6 mice", "value": "reduced"}, {"measurement": "number of petechiae", "setting": "C57BL/6 mice", "value": "reduced number"}]}]}
